In patent publication US20240300980A1, “HETEROCYCLIC COMPOUNDS AS KRAS INHIBITOR, AND PREPARATION THEREFOR AND USE THEREOF IN TREATMENT” (SHANGHAI KECHOW PHARMA, INC., priority 2021, published 2024):
Like-named read-outs stand apart in the source and are kept apart here.

Tested on: AGS cells (KRAS^G12D)
Assay: Detection of cell proliferation in vitro by MTT/MTS method (cell activity experiment)
Type: cell-based
Details: Homo sapiens, AGS, 72 h, read-out: AGS IC50
In short: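 After 3-day compound exposure (final DMSO 0.5%), viability of AGS (KRAS G12D) cells, plated 1000/well one day before dosing, was measured at 490 nm following 4 h MTT or MTS incubation. IC50 was fitted from dose–effect curves relative to DMSO-treated wells.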

[1] = AGS cells, MTT/MTS, 3 days of drug treatment

Row | Compound | IC50 [1] [nM] | IC50 [nM]
1 | CCc1cccc2cc(O)cc(-c3ccc4c(N5C[C@H]6CC[C@@H](C5)N6)c(C#N)c(OC[C@@]56CCCN5C[C@H](F)C6)nc4c3F)c12 [Example 181, 4-((1R,5S)-3,8-diazabicyclo[3.2.1]octan-3-yl)-7-(8-ethyl-3-hydroxynaphthalen-1-yl)-8-fluoro-2-(((2R,7aS)-2-fluorotetrahydro-1H-pyrrolizin-7a(5H)-yl)methoxy)quinoline-3-carbonitrile] | 536 | 
2 | Oc1cc(-c2ncc3c(N4CC5CCC(C4)C5F)nc(OC[C@@]45CCCN4C[C@H](F)C5)nc3c2F)c2c(F)c(F)ccc2c1 (stereo partly drawn) [Example 37, 5,6-difluoro-4-(8-fluoro-4-((1R,5S,8R)-8-fluoro-3-azabicyclo[3.2.1]octan-3-yl)-2-(((2R,7aS)-2-fluorotetrahydro-1H-pyrrolizin-7a(5H)-yl)methoxy)pyrido[4,3-d]pyrimidin-7-yl) naphthalen-2-ol] | > 2500 | 
3 | CCc1c(F)ccc2cc(O)cc(-c3ccc4c(N5C[C@H]6CC[C@@H](C5)N6)nc(OC[C@@]56CCCN5C[C@H](F)C6)nc4n3)c12 [Example 141, 4-(4-((1R,5S)-3,8-diazabicyclo[3.2.1]octan-3-yl)-2-(((2R,7aS)-2-fluorotetrahydro-1H-pyrrolizin-7a(5H)-yl)methoxy)pyrido[2,3-d]pyrimidin-7-yl)-5-ethyl-6-fluoronaphthalen-2-ol] | > 2500 | 
4 | C#Cc1c(F)ccc2cc(O)cc(-c3ncc4c(N5CC6CCC(C5)C6F)nc(OC[C@@]56CCCN5C[C@H](F)C6)nc4c3F)c12 (stereo partly drawn) [Example 34, 5-ethynyl-6-fluoro-4-(8-fluoro-4-((1R,5S, 8R)-8-fluoro-3-azabicyclo [3.2.1]octan-3-yl)-2-(((2R,7aS)-2-fluorotetrahydro-1H-pyrrolizin-7a(5H)-yl)methoxy)pyrido[4,3-d]pyrimidin-7-yl) naphthalen-2-ol] | > 2500 | 
5 | C#Cc1c(F)ccc2cc(O)cc(-c3ncc4c(N5C[C@H]6CC[C@@H](C5)N6)nc(OC[C@@]56CCCN5C[C@H](F)C6)nc4c3O)c12 [Example 332, 4-((1R,5S)-3,8-diazabicyclo[3.2.1]octan-3-yl)-7-(8-ethynyl-7-fluoro-3-hydroxynaphthalen-1-yl)-2-(((2R,7aS)-2-fluorotetrahydro-1H-pyrrolizin-7a(5H)-yl)methoxy)pyrido[4,3-d]pyrimidin-8-ol] | > 2500 | 
6 | C#Cc1c(F)ccc2cc(O)cc(-c3ccc4c(N5CC(C(C)N)C5)nc(OC[C@@]56CCCN5C[C@H](F)C6)nc4c3F)c12 (stereo partly drawn) [Example 213, 4-(4-(3-(1-aminoethyl)azetidin-1-yl)-8-fluoro-2-(((2R,7aS)-2-fluorotetrahydro-1H-pyrrolizin-7a(5H)-yl)methoxy)quinazolin-7-yl)-5-ethynyl-6-fluoronaphthalen-2-ol] | > 2500 | 
7 | Oc1cc(-c2c3c(c4c(N5C[C@H]6CC[C@@H](C5)N6)nc(OC[C@@]56CCCN5C[C@H](F)C6)nc4c2F)OCO3)c2ccccc2c1 [Example 389, 4-(9-((1R,5S)-3,8-diazabicyclo[3.2.1]octan-3-yl)-5-fluoro-7-(((2R,7aS)-2-fluorotetrahydro-1H-pyrrolizin-7a(5H)-yl)methoxy)-[1,3]dioxolo[4,5-f]quinazolin-4-yl)naphthalen-2-ol] | 180 | 
8 | C#Cc1c(F)ccc2cc(O)cc(-c3ccc4c(N5C[C@H]6CC[C@@H](C5)N6)c(C(F)(F)F)c(OC[C@@]56CCCN5C[C@H](F)C6)nc4c3F)c12 [Example 185, 4-(4-((1R,5S)-3,8-diazabicyclo[3.2.1]octan-3-yl)-8-fluoro-2-(((2R,7aS)-2-fluorotetrahydro-1H-pyrrolizin-7a(5H)-yl)methoxy)-3-(trifluoromethyl)quinolin-7-yl)-5-ethynyl-6-fluoronaphthalen-2-ol] | 1350 | 
9 | C#Cc1c(F)ccc2cc(O)cc(-c3ccc4c(N5C[C@H]6CC[C@@H](C5)S6)nc(OC[C@@]56CCCN5C[C@H](F)C6)nc4c3F)c12 [Example 158, 4-(4-((1R,5S)-8-thia-3-azabicyclo[3.2.1]octan-3-yl)-8-fluoro-2-(((2R,7aS)-2-fluorotetrahydro-1H-pyrrolizin-7a(5H)-yl)methoxy)quinazolin-7-yl)-5-ethynyl-6-fluoronaphthalen-2-ol] | 235 | 
10 | CC1CCCc2cc(O)cc(-c3c4c(c5c(N6C[C@H]7CC[C@@H](C6)N7)nc(OC[C@@]67CCCN6C[C@H](F)C7)nc5c3F)CCC4)c21 (stereo partly drawn) [Example 382, 4-(1-((1R,5S)-3,8-diazabicyclo[3.2.1]octan-3-yl)-5-fluoro-3-(((2R,7aS)-2-fluorotetrahydro-1H-pyrrolizin-7a(5H)-yl)methoxy)-8,9-dihydro-7H-cyclopenta[f]quinazolin-6-yl)-5-methyl-5,6,7,8-tetrahydronaphthalen-2-ol] | 45 | 
11 | Oc1cc2c(c(-c3ccc4c(N5C[C@H]6CC[C@@H](C5)N6)nc(OC[C@@]56CCCN5C[C@H](F)C6)nc4c3F)c1)C=CCC2 [Example 305, 4-(4-((1R,5S)-3,8-diazabicyclo[3.2.1]octan-3-yl)-8-fluoro-2-(((2R,7aS)-2-fluorotetrahydro-1H-pyrrolizin-7a(5H)-yl)methoxy)quinazolin-7-yl)-7,8-dihydronaphthalen-2-ol] | 102 | 
12 | C#Cc1c(F)ccc2cc(O)cc(-c3ncc4c(N5CC6CCC(C5)C6SC)nc(OC[C@@]56CCCN5C[C@H](F)C6)nc4c3F)c12 (stereo partly drawn) [Example 64, 5-ethynyl-6-fluoro-4-(8-fluoro-2-(((2R,7aS)-2-fluorotetrahydro-1H-pyrrolizin-7a(5H)-yl)methoxy)-4-((1R,5S, 8R)-8-(methylthio)-3-azabicyclo[3.2.1]octan-3-yl)pyrido[4,3-d]pyrimidin-7-yl) naphthalen-2-ol] | > 10000 | 
13 | CCc1ccc2cc(O)cc(-c3ncc4c(N5C[C@H]6CC[C@@H](C5)N6)nc(OC[C@@]56CCCN5C[C@H](F)C6)nc4c3F)n12 [Example 351, 5-(4-((1R,5S)-3,8-diazabicyclo[3.2.1]octan-3-yl)-8-fluoro-2-(((2R,7aS)-2-fluorotetrahydro-1H-pyrrolizin-7a(5H)-yl)methoxy)pyrido[4,3-d]pyrimidin-7-yl)-3-ethylindolizin-7-ol] | 30 | 
14 | C#Cc1c(F)ccc2cc(O)cc(-c3ccc4c(N5CCC(N)C5)nc(OC[C@@]56CCCN5C[C@H](F)C6)nc4c3F)c12 (stereo partly drawn) [Example 111, 4-(4-(3-aminopyrrolidin-1-yl)-8-fluoro-2-(((2R,7aS)-2-fluorotetrahydro-1H-pyrrolizin-7a(5H)-yl)methoxy)quinazolin-7-yl)-5-ethynyl-6-fluoronaphthalen-2-ol] | > 2500 | 
15 | Oc1cc2c(c(-c3ccc4c(N5C[C@H]6CC[C@@H](C5)N6)nc(OC[C@@]56CCCN5C[C@H](F)C6)nc4c3F)c1)CCCC2 [Example 420, 4-(4-((1R,5S)-3,8-diazabicyclo[3.2.1]octan-3-yl)-8-fluoro-2-(((2R,7aS)-2-fluorotetrahydro-1H-pyrrolizin-7a(5H)-yl)methoxy)quinazolin-7-yl)-5,6,7,8-tetrahydronaphthalen-2-ol] | 60 | 
16 | CCC1CCc2cc(O)cc(-c3ncc4c(N5C[C@H]6CC[C@@H](C5)N6)nc(OC[C@@]56CCCN5C[C@H](F)C6)nc4c3F)c21 (stereo partly drawn) [Example 220, 7-(4-((1R,5S)-3,8-diazabicyclo[3.2.1]octan-3-yl)-8-fluoro-2-(((2R,7aS)-2-fluorotetrahydro-1H-pyrrolizin-7a(5H)-yl)methoxy)pyrido[4,3-d]pyrimidin-7-yl)-1-ethyl-2,3-dihydro-1H-inden-5-ol] |  | 5
17 | C#Cc1c(F)ccc2cc(O)cc(-c3ccc4c(N5CCC(C#N)CC5)nc(OC[C@@]56CCCN5C[C@H](F)C6)nc4c3F)c12 [Example 133, 1-(7-(8-ethynyl-7-fluoro-3-hydroxynaphthalen-1-yl)-8-fluoro-2-(((2R, 7aS)-2-fluorotetrahydro-1H-pyrrolizin-7a(5H)-yl)methoxy)quinazolin-4-yl)piperidine-4-carbonitrile] | > 2500 | 
18 | CCn1cnc2cc(O)cc(-c3ncc4c(N5C[C@H]6CC[C@@H](C5)N6)nc(OC[C@@]56CCCN5C[C@H](F)C6)nc4c3F)c21 [Example 278, 7-(4-((1R,5S)-3,8-diazabicyclo[3.2.1]octan-3-yl)-8-fluoro-2-(((2R,7aS)-2-fluorotetrahydro-1H-pyrrolizin-7a(5H)-yl)methoxy)pyrido[4,3-d]pyrimidin-7-yl)-1-ethyl-1H-benzo[d]imidazol-5-ol] | > 10000 | 
19 | Cc1cc(N)nc(-c2ncc3c(N4C[C@H]5CC[C@@H](C4)N5)nc(OC[C@@]45CCCN4C[C@H](F)C5)nc3c2F)c1C(F)(F)F [Example 41, 6-(4-((1R,5S)-3,8-diazabicyclo[3.2.1]octan-3-yl)-8-fluoro-2-(((2R,7aS)-2-fluorotetrahydro-1H-pyrrolizin-7a(5H)-yl)methoxy)pyrido[4,3-d]pyrimidin-7-yl)-4-methyl-5-(trifluoromethyl) pyridin-2-amine] | > 2500 | 
20 | CCC1c2c(C3=C(F)c4nc(OC[C@@]56CCCN5C[C@H](F)C6)nc(N5C[C@H]6CC[C@@H](C5)N6)c4C4=NCCN43)cc(O)cc2C2CC21 (stereo partly drawn) [Example 409, 5-(10-((1R,5S)-3,8-diazabicyclo[3.2.1]octan-3-yl)-6-fluoro-8-(((2R,7aS)-2-fluorotetrahydro-1H-pyrrolizin-7a(5H)-yl)methoxy)-2,3-dihydroimidazo[1′,2′:1,2]pyrido[4,3-d]pyrimidin-5-yl)-6-ethyl-1,1a,6,6a-tetrahydrocyclopropa[a]inden-3-ol] | 45 | 
21 | C#Cc1c(F)ccc2cc(O)cc(-c3ccc4c(N5C[C@H]6CC[C@@H](C5)N6)nc(OC[C@]56CCCN5[C@@H](COC(=O)N(C)C)CC6)nc4n3)c12 [Example 145, ((3R,7aR)-7a-(((4-((1R, 5S)-3,8-diazabicyclo [3.2.1]octan-3-yl)-7-(8-ethynyl-7-fluoro-3-hydroxynaphthalen-1-yl)pyrido[2,3-d]pyrimidin-2-yl)oxy)methyl)hexahydro-1H-pyrrolizin-3-yl)methyl dimethylcarbamate] | > 2500 | 
